Measurements taken from patent publication US20250026742A1 (SUZHOU ARK BIOPHARMACEUTICAL CO., LTD., priority 2021, published 2025).
Structures can show the parent of a compound that is named as a salt.

Target: ATR kinase (Homo sapiens (Human), UniProt Q13535)
Test: ATR enzyme activity inhibition assay (HTRF)
Format: biochemical
Settings: p53 substrate, full-length ATR enzyme
Experimental: The inhibitory ability to ATR kinase for selected compounds was tested by the HTRF (Homogeneous Time-Resolved Fluorescence). In the reaction system, After the substrate p53 is phosphorylated by ATR, the anti-phospho-p53-Eu that serves as an energy donor and specifically binds to the phosphorylation site on p53 is added. Then, the anti-GST-d2 as an energy acceptor that specifically binds to the GST tag carried on p53 is added. […] The IC50 of the sample to be tested can be obtained through graphing and calculation.
Prepare various buffer systems required for the experiment: • 1. […] Prepare detection buffer: Dilute each of the anti-phospho-p53-Eu cryptate (Cisbio, Cat #61P08KA) and anti-GST-d2 (Cisbio, Cat #61GSTDLB) to 1 unit using HTRF detection buffer (Cisbio, Cat #62SDBRDF).
Powdered compounds were dissolved in DMSO to from a stock solution at a concentration of 10 mM. The solution of compounds to be tested at a concentration of […] was performed a 3-fold dilution for 10 concentrations with DMSO. […] 5 μL of ATR was added to each well accordingly. Each well is incubated at 25° C. for 10 min, added with 5 μL of reaction substrate, incubated at 25° C. for 90 min and added with 10 μL of detection solution. […] The inhibition curves of the compounds were made by the four-parameter […] regression equation of XLfit software, and the inhibition rates of the compounds were calculated.

Chain of ATR kinase (Q13535 whole entry): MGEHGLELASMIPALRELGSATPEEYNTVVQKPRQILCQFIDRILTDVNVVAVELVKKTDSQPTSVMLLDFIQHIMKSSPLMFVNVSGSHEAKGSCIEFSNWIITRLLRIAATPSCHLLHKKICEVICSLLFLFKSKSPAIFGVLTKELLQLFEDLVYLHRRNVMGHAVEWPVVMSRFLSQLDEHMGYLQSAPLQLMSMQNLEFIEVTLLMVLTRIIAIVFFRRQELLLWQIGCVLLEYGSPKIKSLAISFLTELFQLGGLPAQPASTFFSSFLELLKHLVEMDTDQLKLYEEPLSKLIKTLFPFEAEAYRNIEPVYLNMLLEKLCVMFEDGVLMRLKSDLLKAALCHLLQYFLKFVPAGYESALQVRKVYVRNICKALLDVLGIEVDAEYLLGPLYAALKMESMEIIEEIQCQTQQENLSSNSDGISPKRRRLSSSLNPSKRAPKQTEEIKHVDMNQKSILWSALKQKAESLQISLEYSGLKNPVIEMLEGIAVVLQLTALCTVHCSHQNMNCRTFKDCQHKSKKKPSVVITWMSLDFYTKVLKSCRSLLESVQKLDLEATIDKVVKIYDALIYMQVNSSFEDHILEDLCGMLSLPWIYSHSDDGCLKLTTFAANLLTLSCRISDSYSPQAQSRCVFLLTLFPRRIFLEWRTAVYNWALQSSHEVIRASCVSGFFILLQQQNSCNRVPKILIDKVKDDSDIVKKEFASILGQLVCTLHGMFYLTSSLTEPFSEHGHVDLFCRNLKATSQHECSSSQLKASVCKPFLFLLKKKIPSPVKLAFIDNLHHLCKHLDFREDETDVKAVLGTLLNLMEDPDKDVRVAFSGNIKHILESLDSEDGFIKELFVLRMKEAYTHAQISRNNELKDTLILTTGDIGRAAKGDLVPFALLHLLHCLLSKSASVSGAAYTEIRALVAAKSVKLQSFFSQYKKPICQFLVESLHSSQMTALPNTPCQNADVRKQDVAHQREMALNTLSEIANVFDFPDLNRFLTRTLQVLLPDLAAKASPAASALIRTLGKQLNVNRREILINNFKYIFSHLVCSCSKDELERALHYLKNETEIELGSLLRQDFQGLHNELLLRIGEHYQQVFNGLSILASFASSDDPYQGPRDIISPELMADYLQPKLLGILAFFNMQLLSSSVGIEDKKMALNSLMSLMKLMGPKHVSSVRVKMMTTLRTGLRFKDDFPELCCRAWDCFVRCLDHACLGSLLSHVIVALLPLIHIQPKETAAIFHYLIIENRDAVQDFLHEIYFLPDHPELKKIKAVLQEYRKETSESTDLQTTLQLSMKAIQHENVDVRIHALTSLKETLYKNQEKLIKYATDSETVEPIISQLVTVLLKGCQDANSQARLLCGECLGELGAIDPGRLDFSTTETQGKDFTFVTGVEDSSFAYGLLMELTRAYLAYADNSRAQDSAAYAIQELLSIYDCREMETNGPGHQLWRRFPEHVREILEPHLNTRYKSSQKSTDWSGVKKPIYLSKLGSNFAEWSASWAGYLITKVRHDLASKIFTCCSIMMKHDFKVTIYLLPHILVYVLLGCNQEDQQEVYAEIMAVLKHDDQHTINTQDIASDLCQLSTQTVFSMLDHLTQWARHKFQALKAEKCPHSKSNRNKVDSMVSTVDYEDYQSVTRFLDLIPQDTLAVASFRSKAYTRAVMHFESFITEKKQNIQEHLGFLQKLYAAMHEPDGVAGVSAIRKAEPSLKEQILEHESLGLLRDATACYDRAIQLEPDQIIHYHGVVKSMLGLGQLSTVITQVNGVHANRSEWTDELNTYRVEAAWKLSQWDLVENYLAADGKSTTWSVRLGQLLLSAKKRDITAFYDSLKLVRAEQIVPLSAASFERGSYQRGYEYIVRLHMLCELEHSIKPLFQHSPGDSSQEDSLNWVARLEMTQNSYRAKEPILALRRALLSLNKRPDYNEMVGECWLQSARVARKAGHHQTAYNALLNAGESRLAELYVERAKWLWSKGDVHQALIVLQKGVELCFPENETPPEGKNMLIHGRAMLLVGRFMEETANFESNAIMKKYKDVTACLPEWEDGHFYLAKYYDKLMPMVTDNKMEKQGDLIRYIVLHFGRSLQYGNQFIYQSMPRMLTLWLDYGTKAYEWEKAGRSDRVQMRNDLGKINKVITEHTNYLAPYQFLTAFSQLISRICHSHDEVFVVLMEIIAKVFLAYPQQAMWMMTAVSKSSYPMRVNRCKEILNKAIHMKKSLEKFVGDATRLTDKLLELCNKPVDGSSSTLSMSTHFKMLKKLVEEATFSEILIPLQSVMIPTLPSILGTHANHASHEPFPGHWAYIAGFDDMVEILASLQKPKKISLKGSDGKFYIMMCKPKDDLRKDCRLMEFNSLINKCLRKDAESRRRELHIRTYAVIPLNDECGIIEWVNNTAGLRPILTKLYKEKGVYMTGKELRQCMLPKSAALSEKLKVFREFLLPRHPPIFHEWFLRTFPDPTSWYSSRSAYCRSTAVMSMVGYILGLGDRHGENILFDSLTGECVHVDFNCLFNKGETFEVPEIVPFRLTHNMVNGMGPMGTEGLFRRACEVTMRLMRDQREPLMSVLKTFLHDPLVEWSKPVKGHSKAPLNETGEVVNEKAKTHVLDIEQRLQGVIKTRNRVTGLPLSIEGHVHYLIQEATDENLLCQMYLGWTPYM
Chain of ATR kinase (Q8WXE1 whole entry partner): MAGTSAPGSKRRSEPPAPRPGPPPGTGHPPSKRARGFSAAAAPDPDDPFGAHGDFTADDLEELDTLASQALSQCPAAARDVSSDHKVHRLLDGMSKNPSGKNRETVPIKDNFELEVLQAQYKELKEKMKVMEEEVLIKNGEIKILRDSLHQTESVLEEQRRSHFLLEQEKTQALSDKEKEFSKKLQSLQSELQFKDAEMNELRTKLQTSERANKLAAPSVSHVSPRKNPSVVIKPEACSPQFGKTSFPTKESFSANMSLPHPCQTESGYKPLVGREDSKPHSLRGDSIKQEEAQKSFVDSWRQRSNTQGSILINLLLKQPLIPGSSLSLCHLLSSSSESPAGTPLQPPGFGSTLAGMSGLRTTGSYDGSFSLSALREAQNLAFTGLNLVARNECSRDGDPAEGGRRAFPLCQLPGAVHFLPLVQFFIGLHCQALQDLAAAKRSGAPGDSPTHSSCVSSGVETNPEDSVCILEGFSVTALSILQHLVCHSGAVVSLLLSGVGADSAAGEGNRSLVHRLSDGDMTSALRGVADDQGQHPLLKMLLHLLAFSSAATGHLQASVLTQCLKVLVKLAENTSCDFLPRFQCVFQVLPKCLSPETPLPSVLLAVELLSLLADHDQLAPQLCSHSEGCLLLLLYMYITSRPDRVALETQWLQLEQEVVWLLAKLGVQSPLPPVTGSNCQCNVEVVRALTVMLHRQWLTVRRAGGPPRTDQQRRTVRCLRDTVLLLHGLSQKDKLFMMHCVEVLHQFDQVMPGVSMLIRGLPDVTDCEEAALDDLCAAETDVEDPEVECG

Compound | IC50 [nM]
CC(C)S(=O)(=O)c1ccc(-c2cnc(N)c(-c3cc(-c4ccc(NC(N)=O)cc4)no3)n2)cc1 [Example 15, 1-(4-(5-(3-amino-6-(4-(isopropylsulfonyl)phenyl)pyrazin-2-yl)isoxazol-3-yl)phenyl)urea] | 2
CNCc1ccc(-c2cc(-c3nc(-c4ccc(S(=N)(=O)C(C)C)cc4)cnc3N)on2)cc1 (stereo not drawn) [Example 2, (4-(5-amino-6-(3-(4-((methylamino)methyl)phenyl)isoxazol-5-yl)pyrazin-2-yl)phenyl)(imino)(isopropyl)-λ^6-sulfoxide] | 2.79
CNC(=O)NCc1ccc(-c2cc(-c3nc(-c4ccc(S(=O)(=O)C(C)C)cc4)cnc3N)on2)cc1 [Example 7, 1-(4-(5-(3-amino-6-(4-(isopropylsulfonyl)phenyl)pyrazin-2-yl)isoxazol-3-yl)benzyl)-3-methylurea] | 1.04
CN(C)S(=O)(=O)c1ccc(-c2cnc(N)c(-c3cc(-c4ccc(CNC(=N)N)cc4)no3)n2)cc1 [Example 10, 4-(5-amino-6-(3-(4-(guanidinomethyl)phenyl)isoxazol-5-yl)pyrazin-2-yl)-N,N-dimethylbenzenesulfonamide dihydrochloride] | 1.75
CC(C)S(=O)(=O)c1ccc(-c2cnc(N)c(-c3cc(-c4ccc(CNC(=N)N)cc4F)no3)n2)cc1 [Example 4, 1-(4-(5-(3-amino-6-(4-isopropylsulfonyl)phenyl)pyrazin-2-yl)isoxazol-3-yl)-3-fluorobenzyl)guanidine dihydrochloride] | 0.83
CC(C)S(=O)(=O)c1ccc(-c2cnc(N)c(-c3cc(-c4ccc(CNC(=N)N)cc4)no3)n2)cc1 [Example 1, 1-(4-(5-(3-amino-6-(4-(isopropylsulfonyl)phenyl)pyrazin-2-yl)isoxazol-3-yl)benzyl)guanidine dihydrochloride] | 0.97
CC(C)S(=O)(=O)c1ccc(-c2cnc(N)c(-c3cc(-c4ccc(CNC(=O)NC5CC5)cc4)no3)n2)cc1 [Example 5, 1-(4-(5-(3-amino-6-(4-(isopropylsulfonyl)phenyl)pyrazin-2-yl)isoxazol-3-yl)benzyl)-3-cyclopropylurea] | 2.32
CC(C)S(=O)(=O)c1ccc(-c2cnc(N)c(-c3cc(-c4c(F)cc(CNC(=N)N)cc4F)no3)n2)cc1 [Example 11, 1-(4-(5-(3-amino-6-(4-(isopropylsulfonyl)phenyl)pyrazin-2-yl)isoxazol-3-yl)-3,5-difluorobenzyl)guanidine dihydrochloride] | 0.82

Continued, values first:

IC50 [nM] | Compound
9.74 | CC(C)S(=O)(=O)c1ccc(-c2cnc(N)c(-c3cc(-c4ccc(NC(=N)N)cc4)no3)n2)cc1 [Example 16, 1-(4-(5-(3-amino-6-(4-(isopropylsulfonyl)phenyl)pyrazin-2-yl)isoxazol-3-yl)phenyl)guanidine]
0.41 | (R)-5-(5-amino-6-(3-(4-((methylamino)methyl)phenyl)isoxazol-5-yl)pyrazin-2-yl)-3-fluoro-2,2-dimethyl-2,3-dihydrobenzo[b]thiophene 1,1-dioxide or (S)-5-(5-amino-6-(3-(4-((methylamino)methyl)phenyl)isoxazol-5-yl)pyrazin-2-yl)-3-fluoro-2,2-dimethyl-2,3-dihydrobenzo[b]thiophene 1,1-dioxide [Example 35-1 or 35-2]
0.7 | N=C(N)NCc1ccc(-c2cc(-c3nc(-c4ccc(S(=O)(=O)C5CC5)cc4)cnc3N)on2)cc1 [Example 23, 1-(4-(5-(3-amino-6-(4-(cyclopropylsulfonyl)phenyl)pyrazin-2-yl)isoxazol-3-yl)benzyl)guanidine dihydrochloride]
1.21 | CC(C)S(=N)(=O)c1ccc(-c2cnc(N)c(-c3cc(-c4ccc5[nH]c(=O)[nH]c5c4)no3)n2)cc1 (stereo not drawn) [Example 22, 5-(5-(3-amino-6-(4-(propan-2-ylsulfonimido)phenyl)pyrazin-2-yl)isoxazol-3-yl)-1,3-dihydro-benzimidazol-2-one dihydrochloride]
